Reference: patent US20050159390A1, “Treatment and prevention of HIV and other viral infections” (priority 1998, published 2005)
Like-named read-outs stand apart in the source and are kept apart here.

Legend:
HIV-1 IIIB = assay: HIV-1 P24 output in activated human PBMCs, test solutions added post infection; format: cell-based; settings: repeat with further dilutions; dilution 1:1000
Description: In addition, a similar experiment was performed, except that test solutions were added post infection, at the time of plating into the triplicate wells.

HIV-1III B = assay: HIV-1 P24 output in activated human PBMCs, test solution mixed with virus overnight, day 9; format: cell-based; settings: for inhibition at 5000 µg/mL (stock): Human immunodeficiency virus 1, PBMC, 216 h, read-out: Inhibition % of the control (P24 output)
Description: Research Grade Purified d-Galactose (CAT# g404, lot 117H00431, FW 180.2, Sigma Chemical Co., St. Louis, Mo.) was dissolved in saline at a concentration of 5 mg/ml. The solution was allowed to stand at room temperature for 15 minutes and mixed by vortex until the galactose was completely dissolved. The galactose solution was divided into two equal aliquots. Stabilizing solution (0.1 ml) was added to one aliquot, then vortexed and incubated at room temperature for 30 minutes. After mixing again, the mixture was centrifuged at 1500 g for 30 minutes and the supernatant was filtered through a 0.2 μm filter and transferred to a sterile 15 ml tube. The solution was sterilized by gamma radiation (2.5 mega RADs) with 15 minutes exposure. The aliquot without the stabilizing solution was labeled “1A” and the aliquot containing the stabilized solution was labeled “1B”. […] […] Control solutions were water.
One ml of each of the dilutions of the test solution or control was mixed with an equal volume of HIV-1III B (˜50 TCID50/2×10^5 cells) to infect activated human PBMCs overnight at 37° C. (3×10^5 cells/dilution). HIV-1III B is a laboratory-adapted strain. The cells then were washed and placed in culture media containing the indicated dilution of the test solution in triplicate wells ([…], ½ medium changes with media containing the indicated dilutions of test solution were made at ˜3 day intervals). The conditioned media were tested for HIV-1 P24 output on day 9 using the DuPont P24 assay kit. The control was infected PBMCs in the absence of test solutions. Results are shown in Table 9 and are measured as the Inhibition % of the control.

PBMCs = format: cell-based, human
Description: For the standard PBMC assay, PHA-P stimulated cells from at least two normal donors were pooled, diluted in fresh medium to a final concentration of 1×10^6 cells/mL, and plated in the interior wells of a 96 well round bottom microplate at 50 μL/well (5×10^4 cells/well). Test drug dilutions were prepared at a 2× concentration in microfuge tubes and 100 μL of each concentration was placed in appropriate wells in a standard format. A predetermined dilution of virus stock was placed in each test well (50 μL, final MOI≅0.1). Wells with cells and virus alone were used for virus control. Separate plates were prepared identically without virus for drug cytotoxicity studies using an XTT assay system. […]
(§1) Tetrazolium dye staining of screening plates: After 6 days of incubation (37° C. with 5% CO2), the test plates were analyzed by staining with the tetrazolium dye XTT (2,3-b (2-methoxy-4-nitro-5-sulfophenyl)-2H-tetrazolium-5-carboxanilide). XTT-tetrazolium is metabolized by mitochondrial enzymes of metabolically active cells to a soluble formazan product, allowing the rapid quantitative analysis of the inhibition of HIV-induced cell killing by anti-HIV compounds. […] Plates were sealed with adhesive plate sealers and inverted several times to mix the soluble formazan product and the plate was read spectrophotometrically at 450 nm with a Molecular Devices Vmax plate reader. […]

HIV-1IIIB = assay: CEM-SS cell-based assay, inhibition of HIV-induced cell killing (XTT); settings: CEM-SS cells
HIV-1RF = assay: as above; settings: CEM-SS cells
Description: (§2) Cell Preparation: Prior to infection, CEM-SS cells were grown in complete tissue culture medium (RPMI 1640 medium with 10% heat-inactivated fetal bovine serum, 2 mM L-glutamine, 100 U/mL penicillin, 100 μg/mL streptomycin, 10 μg/mL gentamycin) and transferred to T-150 flasks. On the day preceding the assay, the cells were split 1:2 to assure the cells would be in an exponential growth phase at time of infection. On the day of assay, the cells were washed twice with tissue culture medium and resuspended in fresh tissue culture medium. […]
Virus Preparation: Pre-tittered aliquots of HIV-1ROJO and HIV-1RF were removed from the freezer (−80° C.) and thawed to room temperature in a biological safety cabinet. The virus was resuspended and diluted into tissue culture medium such that the amount of virus added to each well in a volume of 50 μL will be the amount determined to give complete cell killing at 6 days post-infection.
Tetrazolium dye staining of screening plates: After 6 days of incubation (37° C. with 5% CO2), the test plates were analyzed by staining with the tetrazolium dye XTT (2,3-b (2-methoxy-4-nitro-5-sulfophenyl)-2H-tetrazolium-5-carboxanilide). XTT-tetrazolium is metabolized by mitochondrial enzymes of metabolically active cells to a soluble formazan product, allowing the rapid quantitative analysis of the inhibition of HIV-induced cell killing by anti-HIV compounds. […]

CEM-SS cells = format: cell-based
Description: as §2
as §1, with “reader. Indices such as % CPE Reduction (cytopathic effects), % Cell Viability, IC25, IC50, IC95, TC25, TC50, and TC95 and other indices were calculated.” for “reader.”

X4 strain LAI/IIIB = assay: RT activity in infected PBMCs treated with carbohydrates; format: cell-based, HIV; settings: summary of Table 17
Description: Reverse Transcriptase Activity Assay: A microtiter based reverse transcriptase (RT) reaction was utilized as described by Buckheit et al., (1991), AIDS Research and Human Retroviruses, 7: 295-302. Tritiated thymidine triphosphate (3H-TTP) was suspended in distilled H2O at 5 Ci/mL. Poly rA and oligo dT were prepared as a stock solution which was kept at −20° C. RT reaction buffer was prepared fresh on a daily basis and contained 125 μL 1M EGTA, 125 μL dH2O, 110 μL 10% SDS, 50 μL 1M Tris (pH 7.4), 50 μL 1M DTT, and 40 μL 1M MgCl2. These three solutions were mixed together in a ratio of 2 parts 3H-TTP, 1 part poly rA:oligo dT, and 1 part reaction buffer. Ten microliters of this reaction mixture were placed in a round bottom microtiter plate and 15 μL of virus containing supernatant were added and mixed. The plate was incubated at 37° C. in a water bath with a solid support to prevent submersion of the plate and incubated for 60 minutes. […] Opti-Fluor-O (Packard) was added to each sample and incorporated radioactivity was quantified utilizing a Wallac 1450 MicroBeta Plus liquid scintillation counter. […]
No carbohydrates were added to the control sample. RT activity was determined at 3, 6, 9, 13, 17, and 20 days post-infection (PI) with X4 strain LAI/IIIB.

[1] = dilution 1:20 of 5 mg/ml solution
[2] = dilution 1:40 of 5 mg/ml solution
[3] = dilution 1:80 of 5 mg/ml solution
[4] = dilution 1:160 of 5 mg/ml solution
[5] = dilution 1:10 of 5 mg/ml solution

In the case of `O=C(CO)N[C@H]1[C@H]([C@H](O)[C@H](O)CO)OC(O)(C(=O)O)C[C@@H]1O` (single isomer, unassigned) [2A, N-glycolylneuraminic acid], the “Inhibition % of Control (P24 output)” value (HIV-1 IIIB) is reported as 7%, the inhibition at 5000 µg/mL (stock) (HIV-1III B; [1]) is reported as 78% and the inhibition at 5000 µg/mL (stock) (HIV-1III B; [2]) is reported as 66%. The inhibition at 5000 µg/mL (stock) (HIV-1III B; [3]) was 41% and the inhibition at 5000 µg/mL (stock) (HIV-1III B; [4]) was 19%.

`O=C(CO)N[C@H]1[C@H]([C@H](O)[C@H](O)CO)OC(O)(C(=O)O)C[C@@H]1O` (single isomer, unassigned) [2B, N-glycolylneuraminic acid] was tested, and the “Inhibition % of Control (P24 output)” value (HIV-1 IIIB) was 1% and the “Inhibition % of the control (P24 output)” value (HIV-1III B; [2]) was 61%.

With `OC[C@H]1O[C@H](O[C@H]2[C@@H](O)[C@@H](CO)OC(O)[C@@H]2O)[C@H](O)[C@@H](O)[C@H]1O` (single isomer, unassigned) [3A, galactose-α 1,3-galactose] the “Inhibition % of the control (P24 output)” value (HIV-1III B; [1]) was 3.6%, the “Inhibition % of the control (P24 output)” value (HIV-1III B; [2]) was 2.2% and the “Inhibition % of the control (P24 output)” value (HIV-1III B; [3]) was 1.4%. The “Inhibition % of the control (P24 output)” value (HIV-1III B; [4]) was 0.4%.

In the case of `OC[C@H]1O[C@H](O[C@H]2[C@@H](O)[C@@H](CO)OC(O)[C@@H]2O)[C@H](O)[C@@H](O)[C@H]1O` (single isomer, unassigned) [3B, galactose-α 1,3-galactose], the “Inhibition % of the control (P24 output)” value (HIV-1III B; [5]) is reported as 4.6%, the “Inhibition % of the control (P24 output)” value (HIV-1III B; [1]) is reported as 3.6% and the “Inhibition % of the control (P24 output)” value (HIV-1III B; [2]) is reported as 1.8%. For the same compound, the “Inhibition % of the control (P24 output)” value (HIV-1III B; [3]) was 1.1% and the “Inhibition % of the control (P24 output)” value (HIV-1III B; [4]) was 0.5%.

Compound `O=C[C@H](O)[C@@H](O)[C@@H](O)[C@H](O)CO` [1A, d-Galactose] has an inhibition at 5000 µg/mL (stock) (HIV-1III B; [5]) of 4%, an inhibition at 5000 µg/mL (stock) (HIV-1III B; [1]) of 5% and an inhibition at 5000 µg/mL (stock) (HIV-1III B; [2]) of 4%. It also gave an inhibition at 5000 µg/mL (stock) (HIV-1III B; [3]) of 2% and an inhibition at 5000 µg/mL (stock) (HIV-1III B; [4]) of 2%.

With `O=C[C@H](O)[C@@H](O)[C@@H](O)[C@H](O)CO` [1B, d-Galactose] the “Inhibition % of the control (P24 output)” value (HIV-1III B; [5]) was 7%, the “Inhibition % of the control (P24 output)” value (HIV-1III B; [1]) was 5% and the “Inhibition % of the control (P24 output)” value (HIV-1III B; [2]) was 3%. For the same compound, the “Inhibition % of the control (P24 output)” value (HIV-1III B; [3]) was 4% and the “Inhibition % of the control (P24 output)” value (HIV-1III B; [4]) was 2%.

In the case of `Cc1cn([C@H]2C[C@H](N=[N+]=[N-])[C@@H](CO)O2)c(=O)[nH]c1=O` [AZT, reference compound], the CC50 (PBMCs) is reported as > 4 µM, the IC50 (HIV-1IIIB) is reported as 0.011 to 0.017 µM and the IC50 (HIV-1RF) is reported as 0.005 to 0.007 µM. For the same compound, the CC50 (CEM-SS cells) was > 1 µM.

In the case of `CC(=O)N[C@H]1[C@H]([C@H](O)[C@H](O)CO)OC(O)(C(=O)O)C[C@@H]1O` (stereo partly shown) [N-acetylneuraminic acid, reference compound], the “RT activity in treated cells (in words)” value (X4 strain LAI/IIIB) is reported as “decreased RT activity was observed only with high concentrations”.
